This note sets out measurements from patent publication US12600716B2 (Gannex Pharma Co., Ltd., priority 2020, dated 2026).

Read-outs that look alike come from different tables or passages of the source.

By AUC(0-t) is commonly meant exposure summed from dosing to a finite time, without extrapolation to infinity. As usually defined, the Cmax is the highest concentration seen after dosing. The term Tmax denotes the time from dosing to the highest level.

The nature of series [1]: Mouse pharmacokinetic studies (IV and PO). It is filed as in vivo, Male CD-1 mice. To be noted: for PO F: PO 10 mg/kg vs IV 2.0 mg/kg; for Vd / AUC(0-t) / clearance / half-life / Cmax / Tmax: male, CD-1, plasma; for clearance: read-out: IV Cl; for half-life: read-out: IV T½ (converted). Here is the method:
Mouse Pharmacokinetic Studies
Typical PK study procedure. For i.v. PK studies, a group of three fasted Male CD-1 mice were dosed with the compound (2.0 mg/kg, 0.50 mg/mL in 5% solutol in saline, clear solution), and 0.02 mL blood was collected at 0.0830, 0.250, 0.500, 1.00, 2.00, 4.00, 8.00, 24.0 h. For PO PK studies, a group of three fasted Male CD-1 mice were dosed with the compound (10 mg/kg, 1 mg/mL in 5% solutol in saline, clear solution), and 0.02 mL blood was collected at 0.250, 0.500, 1.00, 2.00, 4.00, 6.00, 8.00, 24.0 h. The blood was collected into EP tubes (containing EDTA K20.85-1.15 mg) and centrifuged at 3,000 g or 3,200 g at 4° C. for 10 min) and plasma was isolated and divided into two vials. One was used for bioanalysis and one was kept as backup. The samples were kept at −60° C. or below, until being analyzed by LC MS/MS. The samples were analyzed with AB SCIEX INSTRUMENTS LC-MS/MS AU-Triple Quad 6500 Plus and data were processed with Phoenix WinNonlin 6.3 (IV-noncompartmental model and PO-noncompartmental model).

The subject of series [2] is STZ+DEN+HFD induced NASH model. In words: STZ+DEN+HFD induced NASH model in mice. It is filed as in vivo, male C57BL/6 mice. How it is done:
Therapeutic efficacy of FXR compounds was evaluated in STZ+DEN+HFD induced NASH model in male C57BL/6 mice. Briefly, newborn male C57BL/6 mice were injected with streptozocin (STZ) at Week 2 to introduce diabetes and diethylnitrosamine (DEN) at Week 4 to promote liver fibrosis. Mice receiving neither STZ nor DEN were used as negative control (Group 1, n=12) and were fed with normal diet. At Week 6, 60 diabetic mice were selected (blood glucose>12 mmol/L after 6 h of fasting) and were fed with high fat diet (HFD, diet that contains 60 kcal % fat). After one week on HFD, animals were randomly assigned into 5 groups based on body weight: Group 2 (n=12), disease model group, no compound treatment; Group 3 (n=10), positive control group, treated with OCA (30 mg/kg); Group 4 (n=12), treated with Compound 1 (3 mg/kg); Group 5 (n=12), treated with Compound 1 (10 mg/kg); Group 6 (n=12), treated with Compound 1 (30 mg/kg). OCA and Compounds 1 were PO QD, for 7 weeks. On the day after last dose, all animals were euthanized and liver tissues were fixed with formalin for pathological evaluation.

Series [3] concerns DEN+HFD+CHOL induced NASH model. In words: DEN+HFD+CHOL induced NASH model in rats. It is filed as in vivo, male SD rats. How it is done: Therapeutic efficacy of FXR compounds was evaluated in DEN+HFD+CHOL induced NASH model in male SD rats. Newborn male rats received DEN injection at Week 2 after birth to generate NASH model. Negative control animals (Group 1, n=10) received no DEN injection. At Week 4, 50 rats that received DEN injections started HFD+CHOL diet (60 kcal % Fat+1.25% Cholesterol+0.5% cholate) for 8 weeks, while negative control animals were still on normal diet. At Week 5, DEN treated rats were randomly assigned into 5 groups (Group 2-6) based on body weight. Disease Group (Group 2, n=10), received no treatment; OCA group (Group 3, n=10) received OCA at 30 mg/kg. Group 4-6 (n=10 each) received Compound 1 at low (3 mg/kg), […], and […]. OCA and Compound 1 were given PO QD, for 7 weeks. On the day after last dose, all animals were euthanized and liver tissues were fixed with formalin for pathological evaluation.

In the next series the target is T1, human FXR protein (Homo sapiens, UniProt Q96RI1).
T1 construct: purchased Invitrogen
In words: FXR agonist binding ability: time-resolved fluorescence (LanthaScreen) FXR/coactivator assay. It is filed as biochemical. To be noted: GST-labeled human FXR, fluorescein-labeled coactivator, TR-FRET. An outline of the steps:
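GST-tagged human FXR (20 nM final) with fluorescein-labeled SRC2-2 coactivator and GST antibody was exposed to 10-point 3-fold compound dilutions in buffer G, 1 h at room temperature in the dark. TR-FRET was read at 520/495 nm, and EC50 was calculated for activation of the coactivator interaction.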
(In general: In TR-FRET formats the signal depends on donor and acceptor labels being close together.)

Another series deals with T2, hFXR-LBD-GAL4 (Homo sapiens, UniProt Q96RI1).
T2 construct: GAL4 (fusion partner); host or cells: HEK293T
T2 sequence (Q96RI1 262-486 limits assumed): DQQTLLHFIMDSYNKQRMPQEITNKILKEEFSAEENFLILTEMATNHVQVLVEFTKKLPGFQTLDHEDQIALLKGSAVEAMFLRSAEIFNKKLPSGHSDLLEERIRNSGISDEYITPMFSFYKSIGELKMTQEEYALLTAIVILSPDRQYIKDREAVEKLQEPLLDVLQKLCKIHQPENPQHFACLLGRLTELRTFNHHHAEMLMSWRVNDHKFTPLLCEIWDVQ
In words: FXR agonist transactivation ability: luciferase reporter gene in HEK293T. It is filed as cell-based. Conditions: read-out: Cell activity.

Where [4] appears, read: IV 2.0 mg/kg, read-out: IV AUC 0-t.
Where [5] appears, read: PO 10 mg/kg, read-out: PO AUC 0-t.

Take `O=C(O)c1ccc(Oc2ccc3cc(OCc4c(-c5c(Cl)cccc5Cl)noc4C4CC4)ccc3c2)nc1` [Compound 1, 6-((6-((5-cyclopropyl-3-(2,6-dichlorophenyl)isoxazol-4-yl)methoxy)naphthalen-2-yl)oxy)nicotinic acid]: in series [1], the “PO F” value was found to be 33%. Besides, in series [1] (IV 2.0 mg/kg), the Vd worked out at 1.75 L/kg, the clearance came out at 47.4 mL/min/kg and the half-life was 51 min. The area under the curve AUC(0-t) in series [1] (setting [4]) came out at 705 ng·h/mL. Further, in series [1] (PO 10 mg/kg), the concentration peaked (Cmax) at 641 ng/mL and the time to peak (Tmax) stood at 49.8 min. The AUC(0-t) in series [1] (setting [5]) was found to be 1160 ng·h/mL. Moreover, in series [2] (30 mg/kg PO QD 7 weeks), the NAS score entry is listed as “significantly decreases”, the “decreased NAS score as compared with the model group” value is given as 46.2% and the lowered cirrhosis percentage is on record as 15.2%. The “hepatocyte steatosis (FIG. 1)” value in series [2] (3, 10 and 30 mg/kg PO QD 7 weeks, p<0.001) is on record as “dose dependent decrease”. Moreover, the “progress of liver fibrosis (FIG. 2)” value in series [2] (low (3 mg/kg) and high doses (30 mg/kg) PO QD 7 weeks) is “significantly inhibited”. In series [3] (30 mg/kg PO QD 7 weeks), the “NAS score lowered as compared to the model group” value was 42.9% and the lowered cirrhosis percentage is reported as 28.0%. The “NAS score (FIG. 3)” value in series [3] (3, 10 and 30 mg/kg PO QD 7 weeks, all p<0.001) is on record as “dose dependent decrease”. Besides, the “progress of liver fibrosis (FIG. 4)” value in series [3] (3, 10 and 30 mg/kg PO QD 7 weeks, p<0.01) is “significantly inhibited”.

At human FXR protein, `O=C(O)c1ccc(Oc2cccc3cc(OCc4c(-c5c(Cl)cccc5Cl)noc4C4CC4)ccc23)nc1` [Compound 22, 6-((6-((5-cyclopropyl-3-(2,6-dichlorophenyl)isoxazol-4-yl)methoxy)naphthalen-1-yl)oxy)nicotinic acid] gave an EC50 of less than 50 nM. The EC50 at hFXR-LBD-GAL4 is less than 200 nM. In addition, the “PO F” value in series [1] is on record as 32%. In addition, in series [1] (IV 2.0 mg/kg), the Vd was 1.84 L/kg, the clearance amounted to 73.8 mL/min/kg and the half-life is 50.2 min. For the same molecule, in series [1] (setting [4]), the area under the curve AUC(0-t) was found to be 448 ng·h/mL. In series [1] (PO 10 mg/kg), the peak level (Cmax) was 894 ng/mL and the Tmax worked out at 30 min. Also, the exposure AUC(0-t) in series [1] (setting [5]) was determined as 718 ng·h/mL.

As for `CC[C@H]1[C@@H](O)[C@@H]2[C@H](CC[C@]3(C)[C@@H]([C@H](C)CCC(=O)O)CC[C@@H]23)[C@@]2(C)CC[C@@H](O)C[C@@H]12` [OCA, reference compound], the NAS score entry was “decrease in NAS score” in series [2] (30 mg/kg PO QD 7 weeks) and “decrease in NAS score” in series [3] (30 mg/kg PO QD 7 weeks, p<0.001).
